# ChEMBL document CHEMBL1159116, “Discovery of C-imidazole azaheptapyridine FPT inhibitors” (Bioorg Med Chem Lett, 2010)
# Assays:
# [1] = Inhibition of farnesyl protein transferase assessed as transfer of [3H]farnesyl from [3H]farnesyl pyrophosphate to […]
# NIH3T3 = assay: Cytotoxicity against mouse H-Ras transformed NIH/3T3 cells by soft agar colony formation assay; assay type: functional, cell-based
# Rattus norvegicus = assay: (§1) AUC (0 to 6 hrs) in rat at 10 mg/kg; assay type: ADME, organism-based, Plasma; design: time < 6 hr, dose 10 mg/kg; details: in vivo, 6 h
# [2] = as §1; assay type: ADME, organism-based, Plasma; design: time < 6 hr, dose 10 mg/kg; details: plasma
# [3] = Mus musculus, NIH3T3, read-out: IC50
IC50 [1] [nM],AUC (Rattus norvegicus) [µM·h],AUC(0-t) at 6 h [2] [µM·h],SMILES,IC50 (NIH3T3; [3]) [nM],IC50 (NIH3T3; nih3t3)
0.5,0.1,,Cn1cncc1[C@H](O)C1=Cc2cccnc2[C@@H](N2CCN(C(=O)Nc3ccc(C#N)cc3)CC2)c2ccc(Cl)cc21,0.5,
0.75,,,CC(C)OC(=O)N1CCN([C@H]2c3ccc(Cl)cc3C([C@@H](O)c3cncn3C)=Cc3cccnc32)CC1,0.5,
1,,,Cn1cncc1[C@H](O)C1=Cc2cccnc2[C@@H](N2CCN(C(=O)OC3CCCCC3)CC2)c2ccc(Cl)cc21,1,
0.76,,,Cn1cncc1[C@H](O)C1=Cc2cccnc2[C@@H](N2CCN(C(=O)OC3CCCC3)CC2)c2ccc(Cl)cc21,0.5,
2.1,,,CO[C@@H](C1=Cc2cccnc2[C@@H](N2CCN(C(=O)OC(C)(C)C)CC2)c2ccc(Cl)cc21)c1cncn1C,4,
0.38,,2.57,Cn1cncc1[C@H](O)C1=Cc2cccnc2[C@@H](N2CCN(C(=O)OC(C)(C)C)CC2)c2ccc(Cl)cc21,0.5,
0.29,,,Cn1cncc1CC1=Cc2cccnc2[C@@H](N2CCN(C(=O)Nc3ccc(C#N)cc3)CC2)c2ccc(Cl)cc21,0.5,
0.13,,,Cn1cncc1[C@H](O)C1=Cc2cccnc2[C@@H](N2CCN(C(=O)NCc3ccccc3)CC2)c2ccc(Cl)cc21,2.7,
0.47,,,Cn1cncc1[C@H](O)C1=Cc2cccnc2[C@@H](N2CCN(C(=O)NC3CCCCC3)CC2)c2ccc(Cl)cc21,18,
9.6,,,Cn1cncc1CC1=Cc2cccnc2[C@H](N2CCN(C(=O)Nc3ccc(C#N)cc3)CC2)c2ccc(Cl)cc21,,Not Active
12,,,Cn1cncc1[C@@H](O)C1=Cc2cccnc2[C@@H](N2CCN(C(=O)OC(C)(C)C)CC2)c2ccc(Cl)cc21,,Not Active
4.8,,,CO[C@H](C1=Cc2cccnc2[C@@H](N2CCN(C(=O)OC(C)(C)C)CC2)c2ccc(Cl)cc21)c1cncn1C,10,
5.5,,,CC(=O)O[C@H](C1=Cc2cccnc2[C@@H](N2CCN(C(=O)OC(C)(C)C)CC2)c2ccc(Cl)cc21)c1cncn1C,1,
0.3,,,Cn1cncc1[C@H](O)C1=Cc2cccnc2[C@@H](N2CCN(C(=O)OC3(C)CCCCC3)CC2)c2ccc(Cl)cc21,1,
0.4,,,Cn1cncc1[C@H](O)C1=Cc2cccnc2[C@@H](N2CCN(C(=O)NC(C)(C)C)CC2)c2ccc(Cl)cc21,0.5,
0.31,,,N#Cc1ccc(NC(=O)N2CCN([C@H]3c4ccc(Cl)cc4C(Cc4cnc[nH]4)=Cc4cccnc43)CC2)cc1,4,
